Test results as given in patent US8628753B2, “Reduced dye probes for the detection of radical oxygen species” (Emory University, priority 2008, dated 2014).

Tests used:
[1] = tested on: rat aortic smooth muscle (RASM) cells; assay: Detection of ROS in RASM cells during Ang II mediated cell signaling; format: cell-based; details: for background fluorescence / detection of intracellular ROS after Ang II stimulation: 10 minutes; for detection of intracellular ROS after Ang II stimulation: fluorescent microscopy
Experimental: The ability of hydrocyanines to detect ROS in rat aortic muscle (RASM) cells during angiotensin (Ang) II mediated cell signaling was evaluated using fluorescence spectroscopy. Ang II-mediated ROS production in aortic smooth muscle cells has been implicated in the development of atherosclerosis and hypertension.
[…] […] It is evident from fluorescence measurements that hydro-Cy3 is sensitive enough to detect even the ROS production by normal cells, causing relatively higher background fluorescence. On the other hand, because of the tuned reaction rate, deutero-Cy3 can only detect the overproduction of ROS during Ang-II mediated ROS over-production.
The ability of D-DHE to detect ROS in rat aortic muscle (RASM) cells during angiotensin (Ang) II mediated cell signaling was evaluated using fluorescence spectroscopy. A comparative cell-culture study between DHE and D-DHE was conducted to evaluate the ability of DHE and D-DHE to detect ROS production in rat aortic smooth muscle (RASM) cells, during angiotensin (Ang) II mediated cell signaling.
[…] […] Stimulation of RASMs with Ang II was not detected with DHE due to the high level background fluorescence.

[2] = tested on: live, explanted mouse aortas; assay: Detection of ROS in live, explanted mouse aortas after LPS stimulation; parameters: species or system C57B1/6 mice; details: for detection of ROS in tissue explants (LPS versus PBS): confocal fluorescent imaging
Experimental: The ability of hydrocyanines to detect ROS from live, explanted mouse aortas, after lipopolysaccharide endotoxin (LPS) stimulation to produce ROS, was evaluated. The detection of ROS in live tissue can provide information about ROS production in a physiological environment that closely resembles in vivo conditions. C57B1/6 mice were treated with either 16 mg/kg lipopolysaccharide endotoxin (LPS) or PBS for 16 hours and then euthanized. The aortas of the mice were isolated and incubated with either Hydro-Cy3 or Hydro-Cy3+TEMPOL for 15 minutes. Sections of the aorta were made, fixed with 10% formalin, and mounted en face.
For example, the fluorescence intensity of the LPS-treated slide was 183.2 RFU/S compared to 46.9 RFU/S in the PBS-treated mice. Application of TEMPOL (small molecule cell-permeable superoxide dismutase mimetic1, which attenuates superoxide anion and peroxynitrite-induced inflammation) to mouse aortas, treated with LPS, reduced the fluorescence to control levels.

[3] = Fluorescence of hydrocyanines before and after reaction with superoxide (KO2); format: physicochemical; details: for λem: emission wavelength of the corresponding oxidized product; for λex: excitation wavelength of the corresponding oxidized product; for Fold Increase in Intensity: oxidized versus reduced dye, 7.5 μM in 1 mL methanol, oxidized with 20 μL DMSO containing 20 mM KO2
Experimental: Superoxide (O2^−) was created by the enzymatic reaction of XA/XO (10 lm/10 mU) at 25° C. for 5 min (XA=[…]). XA/XO (10 lm/10 mU) was added to buffered solutions of Hydro-Cy3 ([…]) maintained in a 37° C. water bath. The fluorescence emission of each reaction mixture was measured at 5-min intervals against a reagent blank using a fluorescence spectrometer. In some cases solid KO2 (1 mg) or KO2 dissolved in DMSO was added to a Hydro-IR-786 solution in methanol or DMSO and the emission spectra was recorded. Alternatively, hydro-IR-786 (2 mg) was dissolved in 1 mL of ethanol and 50 μL of […] KO2 solution (7 mg KO2 was dissolved in 10 mL dimethylsulfoxide) was added and stirred for 15 min before recording the emission spectra.

[4] = physchem; details: for half-life: buffer, pH 7.4
Experimental: A solution of hydrocyanine in PBS buffer (pH 7.4) was placed in an Eppendorf tube and placed in a 37° C. water bath. Stability was measured by monitoring the formation of the oxidation product using fluorescence spectroscopy over a 24 hour period. The excitation and emission wavelengths for DHE were 515 and 590 nm.
The stability of deuterocyanines was evaluated in the same manner.

[5] = tested on: RASM cells; assay: Trypan blue cell viability assay; format: cell-based, rat; details: experimental conditions of RASM assay and higher concentrations (1 mM)
[6] = Sensitivity to hydroxide radical generated from H2O2 and Fe2+
Experimental: Hydroxide radicals were generated in situ by reacting hydrogen peroxide with Fe^2+. Various quantities of hydrogen peroxide (H2O2) stock solutions were added to a solution of hydrocyanine in methanol to generate hydrogen peroxide concentrations from about 2 to about 30 nM. Aqueous Fe^2+(1 μM) was added to the reduced dye/H2O2 solution to generate a 200 nM concentration. The resulting solution was kept at ambient temperature for 5 minutes and the fluorescence intensity was measured (λex/λem) against a reagent blank (control solution containing only reagent) simultaneously.
This measurement was carried out using 100 μM of Hydro-ICG at 25° C. The hydroxide radical was generated using the procedure described above.

[7] = Sensitivity of DHE and D-DHE to Fenton's reagent in PBS; details: 50 μM probe in PBS; FIG. 4
Experimental: The sensitivity of deuterohydroethydium (D-DHE or DDE) was evaluated in the same manner. A 50 μM solution of DHE or D-DHE (DDE) in PBS buffer was treated with Fenton's reagent (using 1-60 nM H2O2 with Fe^2+) and the fluorescence of the oxidized product was measured.

[8] = tested on: ROS production generated by activated macrophages and neutrophils; assay: In vivo imaging of ROS in LPS model of acute inflammation; parameters: species or system C57B1/6 mice; details: 5 nanomoles i.p., 6 hours after LPS (1 mg i.p.); abdominal area; FIG. 7
Experimental: The ability of hydrocyanines to image ROS production, in vivo, generated by activated macrophages and neutrophils, in an LPS model of acute inflammation was evaluated. Nine C57B1/6 mice were divided into three groups: Group I was given an intraperitoneal (i.p.) injection of LPS (1 mg in 400 μL saline); Group II was given saline (400 μL); and Group III was untreated. After 6 hours, the mice were anaesthetized, their abdominal fur was removed, and the LPS and saline treated mice were injected i.p. with Hydro-Cy7 (5 nanomoles in 50 μL methanol). The mice were images as triplets, one from each group, using a Kodak FX in vivo images with a 700 nm excitation laser and a 790 nm emission filter. […] The mean fluorescent intensity, from the abdominal area, from the three sets of mice was also quantified using Image-Pro software. LPS-treated mice had approximately two-fold higher fluorescence intensity than the saline group.

[9] = Specificity to various reactive oxygen species; details: 50 μM probe in PBS with 1% methanol; equimolar ROS; 5 minutes at 25° C.; FIG. 5
Experimental: A 50 μm Hydro-Cy7 solution was prepared in phosphate buffered saline (PBS) containing 1% methanol. Various reactive oxygen species were added to the 50 μm Hydro-Cy7 solution, at an equimolar ratio to Hydro-Cy7, and the fluorescence intensity was recorded after incubating 5 minutes at 25° C. Superoxide (O2^−) was added as solid KO2. Stock solutions of hydrogen peroxide, t-butyl hydrogen peroxide (TBHP), hypochlorite, 3-morpholinosydnonimine (SIN-1), glutathione (GSH), and 1,4-hydroquinone were prepared and added to the Hydro-Cy7 solution to generate a final concentration of 50 μM. 3-(aminopropyl)-1-hydroxy-3-isopropyl-2-oxo-1-triazene (NOC-5, 1 mM) was prepared as a 10 mM sodium hydroxide solution and added to the Hydro-Cy7 solution to generate a final concentration of 50 μM. The hydroxide and butoxy radicals were generated in situ by reacting hydrogen peroxide and t-butylperoxide with Fe^2+. A 50 μM Hydro-Cy7 solution, in PBS, containing 500 μM Fe^2+ was prepared and either hydrogen peroxide or t-butyl hydrogen peroxide was added to this solution to generate a final concentration of 50 μM.

[10] = tested on: carotid arteries; assay: DHE staining of carotid artery sections after carotid ligation; parameters: species or system Mice; details: 10 μmol/L in PBS, 30 minutes at 37° C.; 14 days after ligation
Experimental: Mice were anesthetized with ketamine/xylazine and their left carotid arteries were exposed and tied with a 6-0 silk suture 1 cm below the bifurcation as described in the literature. The control was sham operated mice. The mice were sacrificed 14 days after ligation and their carotid arteries were isolated and frozen, enzymatically-intact, and 30 μm-thick sections of sham operated and injured carotid arteries were made. The frozen sections were incuvated with DHE (10 μmol/L) in PBS for 30 minutes at 37° C. in a humidified chamber protected form light. DHE is oxidized on reaction with superoxide to ethidium bromide, which binds to DNA in the nucleus and fluoresces red. The DHE stained slides were imaged on a confocal microscope. The ethidium bromide fluorescence was detected using a 543 nm He—Ne laser for excitation and a 560 nm long pass filter for emission. The autofluorescence of the elastic laminae was detected using a 488 nm Ar laser for excitation combined with a 500-550 nm band pass filter for emission.

Structure (SMILES)	detection of ROS (fluorescence) in cells incubated with Ang II ([1]; probe 100 μM)	detection of ROS in tissue explants (LPS versus PBS) [2]	λem [3]	λex [3]	Fold Increase in Intensity [3]	half-life [4]	background fluorescence ([1]; probe 10 μM)	detection of intracellular ROS after Ang II stimulation ([1]; probe 10 μM)	other results
CCN1/C(=C/C=C/C2N(CC)c3ccccc3C2(C)C)C(C)(C)c2ccccc21 (centres unmarked) [Hydro-Cy3]	intense intracellular fluorescence	significantly higher fluorescence intensity	560 nm	535 nm	118 fold	~3 days	–	–	change in fluorescence on application of TEMPOL ([1]; cells treated with probe (100 μM) and Ang II): dramatic decrease in fluorescence; background fluorescence ([1]; probe 50 μM): relatively higher amounts of background fluorescence; fluorescence of cells incubated with probe alone ([1]; probe 100 μM, no Ang II): significantly less fluorescence; integrated total fluorescence intensity ([2]; aortas of LPS-treated mice (16 mg/kg, 16 hours), probe 15 minutes): 183.2 RFU/S; integrated total fluorescence intensity ([2]; aortas of LPS-treated mice, probe + TEMPOL): 34.9 RFU/S; integrated total fluorescence intensity ([2]; aortas of PBS-treated mice): 46.9 RFU/S; cellular toxicity [5]: no cellular toxicity; concentration range of linear concentration curve against hydroxide radical [6]: 5 to 50 nM; detected concentration of hydroxide radical [6]: 5 nM
[2H]C1(c2ccccc2)c2cc(N)ccc2-c2ccc(N)cc2N1CC [D-DHE, deuterohydroethydium]	–	–	–	–	–	–	very low levels of background fluorescence	significant increase in fluorescence	change in fluorescence on application of TEMPOL ([1]; cells treated with probe (10 μM) and Ang II): dramatic decrease in fluorescence; detection of intracellular ROS after Ang II stimulation ([1]; probe 10 μM, listed as DDE): significantly better than DHE; increase in stability versus DHE [4]: 4-6 fold; concentration range in which ROS is accurately measured [7]: 5 to 60 nM
CCN1/C(=C/C=C/C=C/C=C/C2N(CC)c3ccccc3C2(C)C)C(C)(C)c2ccccc21 (centres unmarked) [Hydro-Cy7]	–	–	760 nm	735 nm	104 fold	~3 days	–	–	fluorescence intensity of LPS-treated mice relative to saline group [8]: approximately two-fold; ROS specificity [9]: specificity for superoxide and hydroxyl radical
CCN1c2cc(N)ccc2-c2ccc(N)cc2C1c1ccccc1 (centres unmarked) [DHE, dihydroethydium, reference compound]	failed to detect ROS	failed to detect ROS	590 nm	515 nm	–	0.0208 days	large amount of background fluorescence	not detected	ROS detection in ligated versus sham carotid artery sections [10]: increased red fluorescence compared to the sham mice
CN1/C(=C/C=C/C=C/C2N(C)c3ccc4ccccc4c3C2(C)C)C(C)(C)c2c1ccc1ccccc21 (centres unmarked) [Hydro-IR-676]	–	–	693 nm	675 nm	100 fold	–	–	–	–
